The values below come from patent US20080020077A1, “Association Of Vegetal Extracts Based On Gooseberries, Black Orchids And Black Tulips And Topical Composition Comprising The Association Of Said Vegetal Extracts” (priority 2004, published 2008).

This experiment relates to collagen. The experiment can be described thus: Collagen content of human fibroblasts (hydroxyproline by reverse-phase HPLC). The settings on record: positive reference, versus control. The format is cell-based. Here is the method:
For this study, the fibroblasts were cultured in the same way as in paragraph 1.4.1. After the incubation period, the fibroblasts were recovered by centrifugation. The pellets were digested with […] (1 mg/cell pellet) in […] acetic acid for 24 hours at 4° C. After centrifugation at 10 000 g, the collagens were precipitated with 1 M sodium chloride (NaCl), and the precipitate was resuspended and then dialyzed. The primary amino acids were derivatized with o-phthaldehyde (OPA) acid, thus eliminating their interference. Hydroxyproline and proline were then derivatized with NBD-Cl by coupling the amino groups to NBD-CL. The NBD-Hyp was separated and identified by reverse-phase HPLC. […] The mobile phase is pre-filtered and then degassed before use. • The solutions are prepared in the following way: […] The standard curve is prepared from a solution of hydroxyproline at 50 mg/l. Successive dilutions make it possible to obtain solutions ranging from 0.5 to 40 mg/l. The derivatization and the establishment of the standard curve are carried out using 10 μl of a standard solution at various concentrations, mixed with 10 μl of the buffer. After the addition of 5 μl of OPA and agitation, the tubes are kept at ambient temperature for 5 min and then 10 μl of the NBD-Cl solution are added. […] The tubes are then removed and the orange coloration makes it possible to verify the derivatization. […]

As for `O=C1O[C@H]([C@@H](O)CO)C(O)=C1O` [Vit C, vitamin C], the “% incorporation” value was “+61%”.
